{"source": "paper PMC6158189", "about": "“A pharmacological probe identifies cystathionine β-synthase as a new negative regulator for ferroptosis” (Cell Death & Disease, 2018)", "key": {"[1]": {"test_system": "HEK293T cells", "assay": "cell cycle distribution (propidium iodide, flow cytometry)", "assay_type": "cell-based", "conditions": "3 μM, 12 h", "procedure": "Fig. 4 CH004 arrests the cell cycle at the S phase. a CH004 reduces the cell viability of HEK293T and HepG2 cells. HEK293T or HepG2 cells were treated with indicated concentrations of CH004 for 24 h before the cell number was analyzed using the CellTiter96® Aqueous One Solution Cell Proliferation Assay (Promega, Materials and Methods). The means at each concentration of one representative experiment are shown as percentages of DMSO (control, 100%). Means ± SDs (n = 3). b Overexpression of hCBS or knock-down of hCBS counteracts the growth inhibition exerted by CH004 in HEK293T cells. Indicated HEK293T stable cell lines were treated with the CH004 or DMSO for 24 h. Then, the cell viability was quantified with the CellTiter 96® Aqueous One Solution Cell Proliferation Assay under the standard protocol (Promega). […] The efficacy for CBS overexpression and knock-down in HEK293T cells was determined by Western blotting using an anti-CBS antibody (3E1, 1:2000; Abnova). c CH004 induces cell death in HEK293T and HepG2 cells. […] HEK293T cells were incubated with indicated compounds for 12 h, and the DNA content was quantified with propidium iodide to analyze the cell cycle distribution by flow cytometry (e). The cell cycle distributions for HEK293T-shNT and HEK293T-shCBS cells were accordingly analyzed and are shown in f. […]"}, "[2]": {"test_system": "mouse embryonic fibroblasts (MEF)", "assay": "lipid ROS (BODIPY 581/591 C11, flow cytometry)", "assay_type": "cell-based", "conditions": "low micromolar concentrations, 24 h", "procedure": "To detect lipid peroxidation upon treatment with CH004, HepG2 cells or mouse embryonic fibroblasts (MEF) were seeded in 12-well plates with ~ 1.8 × 10^5 cells per well for 24 h. After treatment with the inhibitor for another 24 h, cells were stained with BODIPY® 581/591 C11 (Invitrogen) for 1 h at a final concentration of 2 μM at 37 °C[57]. The cells were then resuspended in an appropriate amount of PBS after being washed once with PBS. Lipid peroxidation, i.e., lipid ROS, was analyzed by detection of the fluorescence using an LSR Fortessa flow cytometer. The data were recorded at 530/30 nm (green fluorescent) and 670/30 nm (red fluorescent) wavelengths after excitation at 488 nm. A minimum of 20000 events was used for the analysis. All the experiments were independently repeated twice in triplicate.\nFigure S15. The mode of actions for CH004 in cells. […] Indicated HEK293T stable cell lines were treated with CH004 at a concentration of 10 µM for 24 h, and the cell viability was then measured using the CellTiter96® Aqueous One Solution Cell Proliferation Assay (Promega). Means ± SDs (n=3). (B-C) CH004 or erastin triggers ferroptosis in mouse embryonic fibroblasts (MEF). […] The cell viability was accordingly quantified using the CellTiter96® Aqueous One Solution Cell Proliferation Assay (Promega) and the results were shown as percentages of DMSO (control, 100%). […]"}}, "data": [{"compound": "Cn1nc(Cc2ccccc2)nc2c(=O)n(C)c(=O)nc1-2", "note": "[CH004, 3-benzyl-1,6-dimethylpyrimido[5,4-e][1,2,4]triazine-5,7(1H,6H)-dione]", "values": [{"measurement": "increase in cell number in the S phase", "setting": "[1]", "value": "more than 20%"}, {"measurement": "induction of ferroptosis (lipid ROS) in MEF", "setting": "[2]", "value": "~2", "unit": "fold"}]}]}
